Results taken from publication PMC3365043, “Receptor-Targeting Phthalocyanine Photosensitizer for Improving Antitumor Photocytotoxicity” (PLoS ONE, 2012).
Where two headings read alike, the source gives them in different places.

Tests used:
MDA-MB-231 [1] = test: Cellular uptake (fluorescence of cell lysate); conditions: 10^−7 to 10^−4.5 M, 12 hr, 37°C, 1% DMSO (ZnPc-GnRH) or 0.2% Cremophor EL (ZnPc-COOH), mean of four experiments
Procedure: (§1) Aliquots of cells (2.5×10^5 per ml growth medium) were placed in 96-multiwell black opaque plates (Costa) and incubated overnight at 37°C under 5% CO2. Various concentrations (10^−7, 10^−6.5, 10^−6, 10^−5.5, 10^−5 and 10^−4.5 M) of ZnPc-GnRH conjugate (in 1% DMSO) or ZnPc-COOH (in an additional 0.2% Cremophor EL) were added and incubated with cells at 37°C. After 12 hr incubation, the exponentially growing cells were washed with sterile PBS before lysis with NaOH (0.1 N, 0.2 ml with 1% SDS) to give a homogenous solution. The fluorescence of the cell extract was measured on a microplate reader (Synergy 4, BioTek Instruments) with λex = 610 nm and λem = 690 nm. The concentration of cellular protein was determined with a BCA Protein Assay Kit (BioTeke Corporation, Beijing, China). Standard curves were made with cell lysates treated as above with known added amounts of bovine serum albumin. Results are expressed as nmol photosensitizer per mg cell protein.

HepG2 [2] = test: Cellular uptake (fluorescence of cell lysate); type: cell-based, human; conditions: 10^−7 to 10^−4.5 M, 12 hr, 37°C, 0.2% Cremophor EL (ZnPc-COOH), mean of four experiments
Procedure: as §1

MCF-7 [3] = test: Cellular uptake (fluorescence of cell lysate); conditions: 10^−7 to 10^−4.5 M, 12 hr, 37°C, 1% DMSO (ZnPc-GnRH) or 0.2% Cremophor EL (ZnPc-COOH), lysate fluorescence λex 610/λem 690 nm, mean of four experiments
Procedure: as §1

HELF [4] = test: Cellular uptake (fluorescence of cell lysate); type: cell-based, human; conditions: 10^−7 to 10^−4.5 M, 12 hr, 37°C, 0.2% Cremophor EL (ZnPc-COOH), mean of four experiments
Procedure: as §1

MCF-7 [5] = test: Phototoxicity and dark toxicity, AlamarBlue cell viability; conditions: read-out: Phototoxicity IC50 (50% growth inhibition), 12 hr incubation, 670 nm laser, 1.5 J cm−2, viability after 24 hr
Procedure: (§2) The cell lines we used in the current study were human breast cancer cell lines (MDA-MB-231 and MCF-7), human hepatoblastoma cell line (HepG2) and human embryo lung fibroblasts (HELF). All these cell lines were purchased from American Type Culture Collection (ATCC, Manassas, VA, USA).
(§3) MDA-MB-231 and MCF-7 cells were maintained routinely in Dulbecco’s modified Eagle’s medium (DMEM) supplemented with 10% fetal calf serum (FCS) and antibiotics. HepG2 and HELF cells were grown in RPMI-1640 supplemented with 10% FCS and antibiotics. All cells were kept at 37°C in a humidified incubator with 5% CO2 atmosphere. The viability of cells was determined by Trypan blue dye exclusion. Cells were maintained in logarithmic phase with viability >95%.
(§4) Cells at a density of 2.5×10^5 per ml in a volume of 200 µl per well were placed in 96-multiwell black opaque plates and incubated overnight at 37°C under 5% CO2. […] The plates were illuminated at a light dosage of 1.5 J cm^−2 using a 670 nm SAS-DL3 medical laser (Beijing Shou’anshan Electronic Technology Co. Ltd. Beijing, China) and then returned to incubator; dark toxicity was measured in parallel. After 24 hr incubation, cell viability was measured on a microplate reader (Synergy 4, BioTek Instruments) using the AlamarBlue® fluorometric cell viability assay (BioSource International Inc., Camarillo, CA, USA) with λex 530 nm and λem 585 nm. […]

HepG2 [6] = test system: HepG2
Procedure: as §2, §3, §4

[7] = Fluorescence quantum yield, comparative method with ZnPc as standard; type: physicochemical; conditions: in DMSO, ZnPc standard (Фf 0.2)
Procedure: Fluorescence quantum yield (Фf) of ZnPc-GnRH conjugate was measured by a comparative method using ZnPc as a standard (Фf (ZnPc) in DMSO = 0.2) using the Eq. (1) [drawing 1] (1) where Фf and Ф0 are fluorescence quantum yields of the conjugate and standard, respectively. Au and A0 are absorbances of the conjugate and standard, respectively. Fu and F0 are areas under the emission curves of the conjugate and standard, respectively. nu and n0 are refractive indices of the solvents used for the conjugate and standard, respectively. The fluorescence of the conjugate and standard were measured on a Cary Eclipse Fluorescence spectrophotometer (Varian, Inc., Walnut Creek, CA).

MCF-7 [8] = test system: MCF-7
Procedure: as §2, §3, §4

HELF [9] = test system: HELF
Procedure: as §2, §3, §4

MDA-MB-231 [10] = test system: MDA-MB-231
Procedure: as §2, §3, §4

MDA-MB-231 [11] = test: Phototoxicity and dark toxicity, AlamarBlue cell viability; conditions: read-out: Phototoxicity IC50 (50% growth inhibition), 12 hr incubation, 670 nm laser, 1.5 J cm−2, viability after 24 hr
Procedure: as §2, §3, §4

[12] = Singlet oxygen quantum yield determination (DPBF decay); type: physicochemical; conditions: in DMSO; 0.5 µM; DPBF decay at 417 nm; 670 nm laser at 80 mW cm−2; ZnPc reference (0.67); error less than 10%
Procedure: The PDT effect of ZnPc type photosensitizer is usually mediated by type II mechanism involving singlet oxygen (^1O2) as major cytotoxic agent. The quantum yield of ^1O2 generation by ZnPc-GnRH was determined by comparing with the un-substituted zinc phthalocyanine (ZnPc) as reference, which has a quantum yield of 0.67 in DMSO [21]. Briefly, a 2 ml DMSO solution of the mixture of the ZnPc-GnRH conjugate (0.5 µM) and 1,3-diphenylisobenzofuran (DPBF, a scavenger molecule for ^1O2), was introduced to the spectrophotometric cell of 1 cm path length and illuminated with a laser light (670 nm at 80 mW cm^−2) in the presence of air (without degassing). The DPBF decay at 417 nm was monitored every 5 s. The concentration of DPBF was kept lower than 3×10^−5 M during the experiment to avoid chain reactions induced by DPBF in the presence of ^1O2. The quantum yield measurement has an error of less than 10%.

[13] = Fluorescence decay time by time-correlated single photon counting; type: physicochemical; conditions: in DMSO, 300 K, fitted decay curve
Procedure: Fluorescence decay time (τs) of ZnPc-GnRH conjugate was measured by time-correlated single photon counting experiment of fluorescence excited with a 1.2 ns pulse laser diode at 460 nm, performed on an Edinburgh Instruments FLS920 spectrofluorometer (Livingston, UK) at 300 K. Fluorescence lifetimes were estimated by fitting the decay data using an interactive deconvolution procedure based on Marquardt algorithm with software supplied by OriginLab.

S180 tumor-bearing mice = conditions: cited from earlier work
Excerpt: We previously described a peptide-conjugated photosensitizer (ZnPc-(Lys)5), zinc phthalocyanine (ZnPc) conjugated with pentalysine peptidyl moiety, and reported its in vitro and in vivo efficacy. The pentalysine peptide renders water solubility of ZnPc that is otherwise not soluble in physiological condition and requires specialized formulation with, e.g., Cremophor EL. […] Herein we report the synthesis and the physicochemical characterization of this ZnPc-GnRH conjugate, along with the evaluation of its photodynamic activity at cellular level. […] This work p ...

[14] = in DMSO, cited from earlier work
Excerpt: Table 1 Photophysical parameters of ZnPc-GnRH conjugate in DMSO compared to that of ZnPc in DMSO. | column: τs (ns)

[15] = in DMSO; ref 20; cited from earlier work
Excerpt: Table 1 Photophysical parameters of ZnPc-GnRH conjugate in DMSO compared to that of ZnPc in DMSO. | column: Фf

Procedure for MCF-7 cells: 200 µl of MCF-7 cells (at a density of 2.5×10^5 per ml) were seeded in each well of 96-multiwell black opaque plates and incubated overnight at 37°C under 5% CO2. After treated with or without Cetrorelix (at a concentration of 7.5×10^−7 M), a GnRH antagonist, for 12 hr at 37°C, MCF-7 cells were washed twice with sterile PBS before fresh medium was added. These exponentially growing MCF-7 cells were then allowed to incubate with ZnPc-GnRH conjugate (at a concentration of 5×10^−6 M) for various time periods (5, 10, 20, 40, 80, 120 and 180 min) before the cellular uptakes were measured at different incubation time points as described above to determine the cellular uptake curves.

Mono-substituted β-carboxyphthalocyanine zinc [ZnPc-COOH]
Cellular uptake (MDA-MB-231 [1]): low levels of cellular uptakes
Cellular uptake (HepG2 [2]): low levels of cellular uptakes
Cellular uptake (MCF-7 [3]): low levels of cellular uptakes
Cellular uptake (HELF [4]): low levels of cellular uptakes

CC(C)C[C@H](NC(=O)CNC(=O)[C@H](Cc1ccc(O)cc1)NC(=O)[C@H](CO)NC(=O)[C@H](Cc1c[nH]c2ccccc12)NC(=O)[C@H](Cc1c[nH]cn1)NC(=O)[C@H](CCC(=O)O)NC(=O)c1ccc2c3nc4nc(nc5[nH]c(nc6nc(nc([nH]3)c2c1)-c1ccccc1-6)c1ccccc51)-c1ccccc1-4)C(=O)N[C@@H](CCCNC(=N)N)C(=O)N1CCC[C@H]1C(=O)NCC(=O)O [ZnPc-GnRH]
IC50 (MCF-7 [5]): 1820 nM
Dark toxicity (HepG2 [6]): no obvious cellular dark toxicity
Phototoxicity (HepG2 [6]; HepG2, 10^−7 to 10^−4.5 M, 12 hr incubation, 670 nm, 1.5 J cm−2): no significant phototoxicity
Fluorescence quantum yield (Фf) [7]: 0.17
Dark toxicity (MCF-7 [8]): no obvious cellular dark toxicity
Dark toxicity (HELF [9]): no obvious cellular dark toxicity
Phototoxicity (HELF [9]; HELF, 10^−7 to 10^−4.5 M, 12 hr incubation, 670 nm, 1.5 J cm−2): no significant phototoxicity
Dark toxicity (MDA-MB-231 [10]): no obvious cellular dark toxicity
IC50 (MDA-MB-231 [11]): 1320 nM
Singlet oxygen quantum yield (ФΔ) [12]: 0.73
Fluorescence decay time (τs) [13]: 2.7 ns
Time at which cellular uptake reached the maximal level (MCF-7 cells): ~2 h

pentalysine phthalocyanine zinc [ZnPc-(Lys)5]
Selectivity for tumor over brain tissue (S180 tumor-bearing mice; S180 tumor-bearing mice): 6 fold
Selectivity for tumor over muscle tissue (S180 tumor-bearing mice; S180 tumor-bearing mice): 2 fold

[Zn+2].c1ccc2c(c1)-c1nc-2nc2[n-]c(nc3nc([n-]c4nc(n1)-c1ccccc1-4)-c1ccccc1-3)c1ccccc21 [ZnPc, Zinc phthalocyanine]
Distribution in murine brain (S180 tumor-bearing mice; murine brain): very low level of distribution
Fluorescence decay time (τs) ([14]; ref 23): 1.22 ns
Fluorescence decay time (τs) ([14]; ref 24): 3.6 ns
Fluorescence quantum yield (Фf) [15]: 0.20 [20]
